Measurements from patent US11179372B2, “Isoxazoline solution containing vitamin E for use with sanitized drinking water” (Intervet Inc., priority 2015, dated 2021).

Experiments:
[1] = Tolerance and plasma concentrations of Fluralaner in laying hens (Example 2); format: in vivo, chickens
Procedure: No vitamin E was present in the concentrated Fluralaner solution used to prepare the medicated drinking water.
The effectivity of an oral dosing regimen of Fluralaner was tested by administering medicated drinking water (via gavage) to laying hens, in 2 repeated doses of 0.25, 0.5 or 1.0 mg/kg body weight, administered 7 days apart, and challenging them with infestation by Northern fowl mites, via source birds and natural infestation. The birds were kept in separate pens, at 11 birds per pen.

[2] = Prevention of degradation by oxidizing sanitizer (hypochlorite) in medicated drinking water; format: physicochemical
Procedure: The Fluralaner level was determined using UHPLC. The alpha-tocopherol used was alpha-tocopherol EP (Fluka).
To prepare the test samples, the required amounts of Transcutol and Tween were measured, combined in a beaker at room temperature, and mixed magnetically. Next, when no protector was added, the required amount of Fluralaner was weighed, added, and mixed until complete dissolution, which usually required about 10 minutes, at 70% speed. […] The complete dissolution was verified visually. Next the density of the resulting solution was checked with a Densimeter, at 20° C.
To test the capacity of the different protectors to prevent degradation of Fluralaner in medicated drinking water by an oxidising sanitizer, samples of the pharmaceutical composition as prepared above were diluted to different concentrations, and incubated with different amounts of hypochlorite. Concentrations of Fluralaner in medicated drinking water used were: 1, 5, and 10 μg/ml.
The hypochlorite used was from a 13% sodium hypochlorite solution (Acros Organics), which was prepared into samples with a concentration of hypochlorite of: 0, 0.5, 2, 5, or 10 ppm, wherein 1 ppm equals 20 μM. Samples without hypochlorite served as positive controls. While the dilutions of hypochlorite were made in purified water, one additional sample at 5 ppm hypochlorite was prepared in standard tap water (Angers, France). Control samples were tested at day zero, all others were tested after an incubation for 7 days at 40° C./75% RH.
The concentration of protector in the test sample was dependent of the dilution factor of the concentrated Fluralaner composition applied: 1:10,000, 1:2000, or 1:1000, respectively.

[3] = Variation of concentration of vitamin E, Fluralaner in 5 ppm hypochlorite; format: physicochemical; conditions: used at 1:10.000; for Reduction t = 0 to t = 7 in %: 5 ppm ClO-, 40° C./75% RH
Procedure: While in Example 4.3 alpha-tocopherol was used in the pharmaceutical composition at 8.2% w/w, it was now tested at 80% of that value, namely at 6.6% w/w. Pharmaceutical compositions according to the invention were prepared, containing either 8.2 or 6.6% w/w alpha-tocopherol. Also one base composition was prepared without protector. These were diluted 1:10.000 to prepare medicated drinking waters with 1 μg/ml Fluralaner. Next hypochlorite was added to 5 ppm, and 20 ml samples were filled-out in 50 ml glass vials, sealed with a rubber stopper, and stored for 7 days at 40° C./75% RH. The amount of Fluralaner of the three samples was measured at t=0 and at t=7 days using UHPLC. The concentration of the vitamin E in the final test sample was 1:10,000 of 6.6 or 8.2% w/w.

[4] = Conc. Fluralaner 1 μg/ml, hypochlorite 0 ppm, T = 0
[5] = Conc. Fluralaner 1 μg/ml, hypochlorite 0 ppm, T = 7 d at 40° C./75% RH
[6] = Conc. Fluralaner 1 μg/ml, hypochlorite 0.5 ppm, T = 7 d at 40° C./75% RH
[7] = Conc. Fluralaner 1 μg/ml, hypochlorite 2 ppm, T = 7 d at 40° C./75% RH
[8] = Conc. Fluralaner 1 μg/ml, hypochlorite 5 ppm (tapw.), T = 7 d at 40° C./75% RH
[9] = Conc. Fluralaner 1 μg/ml, hypochlorite 5 ppm, T = 7 d at 40° C./75% RH
[10] = Conc. Fluralaner 1 μg/ml, hypochlorite 10 ppm, T = 7 d at 40° C./75% RH
[11] = Conc. Fluralaner 5 μg/ml, hypochlorite 0 ppm, T = 0
[12] = Conc. Fluralaner 5 μg/ml, hypochlorite 0 ppm, T = 7 d at 40° C./75% RH
[13] = Conc. Fluralaner 5 μg/ml, hypochlorite 0.5 ppm, T = 7 d at 40° C./75% RH
[14] = Conc. Fluralaner 5 μg/ml, hypochlorite 2 ppm, T = 7 d at 40° C./75% RH
[15] = Conc. Fluralaner 5 μg/ml, hypochlorite 5 ppm (tapw.), T = 7 d at 40° C./75% RH
[16] = Conc. Fluralaner 5 μg/ml, hypochlorite 5 ppm, T = 7 d at 40° C./75% RH
[17] = Conc. Fluralaner 5 μg/ml, hypochlorite 10 ppm, T = 7 d at 40° C./75% RH
[18] = Conc. Fluralaner 10 μg/ml, hypochlorite 0 ppm, T = 0
[19] = Conc. Fluralaner 10 μg/ml, hypochlorite 0 ppm, T = 7 d at 40° C./75% RH
[20] = Conc. Fluralaner 10 μg/ml, hypochlorite 0.5 ppm, T = 7 d at 40° C./75% RH
[21] = Conc. Fluralaner 10 μg/ml, hypochlorite 2 ppm, T = 7 d at 40° C./75% RH
[22] = Conc. Fluralaner 10 μg/ml, hypochlorite 5 ppm (tapw.), T = 7 d at 40° C./75% RH
[23] = Conc. Fluralaner 10 μg/ml, hypochlorite 5 ppm, T = 7 d at 40° C./75% RH
[24] = Conc. Fluralaner 10 μg/ml, hypochlorite 10 ppm, T = 7 d at 40° C./75% RH
[25] = Vitamin E 0 % w/w in pharm. comp.
[26] = Vitamin E 6.6 % w/w in pharm. comp.
[27] = Vitamin E 8.2 % w/w in pharm. comp.

Cc1cc(C2=NOC(c3cc(Cl)cc(Cl)c3)(C(F)(F)F)C2)ccc1C(=O)NCC(=O)NCC(F)(F)F (centres unmarked) [Fluralaner]
Tolerance in the hens ([1]; 2 single doses of 0.25, 0.5, or 1 mg/kg BW, 7 days apart, oral): well tolerated
Concentrations of Fluralaner in the birds' plasma ([1]; doses 0.25, 0.5, 1.0 mg/kg BW twice): increased proportionally to the dose administered
Fluralaner content in medicated drinking water; alpha-tocopherol as protector [2, 4]: 0.91 µg/mL
Fluralaner content in medicated drinking water; no protector [2, 4]: 0.93 µg/mL
Fluralaner content in medicated drinking water; alpha-tocopherol as protector [2, 5]: 0.89 µg/mL
Fluralaner content in medicated drinking water; no protector [2, 5]: 0.92 µg/mL
Fluralaner content in medicated drinking water; alpha-tocopherol as protector [2, 6]: 0.91 µg/mL
Fluralaner content in medicated drinking water; no protector [2, 6]: 0.91 µg/mL
Fluralaner content in medicated drinking water; alpha-tocopherol as protector [2, 7]: 0.92 µg/mL
Fluralaner content in medicated drinking water; no protector [2, 7]: 0.91 µg/mL
Fluralaner content in medicated drinking water; alpha-tocopherol as protector [2, 8]: 0.86 µg/mL
Fluralaner content in medicated drinking water; no protector [2, 8]: 0.13 µg/mL
Fluralaner content in medicated drinking water; alpha-tocopherol as protector [2, 9]: 0.89 µg/mL
Fluralaner content in medicated drinking water; no protector [2, 9]: 0.29 µg/mL
Fluralaner content in medicated drinking water; alpha-tocopherol as protector [2, 10]: 0.05 µg/mL
Fluralaner content in medicated drinking water; no protector [2, 10]: <LoQ
Fluralaner content in medicated drinking water; alpha-tocopherol as protector [2, 11]: 5.52 µg/mL
Fluralaner content in medicated drinking water; no protector [2, 11]: 5.50 µg/mL
Fluralaner content in medicated drinking water; alpha-tocopherol as protector [2, 12]: 5.45 µg/mL
Fluralaner content in medicated drinking water; no protector [2, 12]: 5.51 µg/mL
Fluralaner content in medicated drinking water; alpha-tocopherol as protector [2, 13]: 5.52 µg/mL
Fluralaner content in medicated drinking water; no protector [2, 13]: 5.52 µg/mL
Fluralaner content in medicated drinking water; alpha-tocopherol as protector [2, 14]: 5.52 µg/mL
Fluralaner content in medicated drinking water; no protector [2, 14]: 5.50 µg/mL
Fluralaner content in medicated drinking water; alpha-tocopherol as protector [2, 15]: 5.42 µg/mL
Fluralaner content in medicated drinking water; no protector [2, 15]: 4.43 µg/mL
Fluralaner content in medicated drinking water; alpha-tocopherol as protector [2, 16]: 5.49 µg/mL
Fluralaner content in medicated drinking water; no protector [2, 16]: 5.31 µg/mL
Fluralaner content in medicated drinking water; alpha-tocopherol as protector [2, 17]: 5.56 µg/mL
Fluralaner content in medicated drinking water; no protector [2, 17]: 1.54 µg/mL
Fluralaner content in medicated drinking water; alpha-tocopherol as protector [2, 18]: 10.14 µg/mL
Fluralaner content in medicated drinking water; no protector [2, 18]: 10.10 µg/mL
Fluralaner content in medicated drinking water; alpha-tocopherol as protector [2, 19]: 10.01 µg/mL
Fluralaner content in medicated drinking water; no protector [2, 19]: 10.07 µg/mL
Fluralaner content in medicated drinking water; alpha-tocopherol as protector [2, 20]: 10.10 µg/mL
Fluralaner content in medicated drinking water; no protector [2, 20]: 10.03 µg/mL
Fluralaner content in medicated drinking water; alpha-tocopherol as protector [2, 21]: 10.10 µg/mL
Fluralaner content in medicated drinking water; no protector [2, 21]: 10.03 µg/mL
Fluralaner content in medicated drinking water; alpha-tocopherol as protector [2, 22]: 9.94 µg/mL
Fluralaner content in medicated drinking water; no protector [2, 22]: 8.69 µg/mL
Fluralaner content in medicated drinking water; alpha-tocopherol as protector [2, 23]: 9.99 µg/mL
Fluralaner content in medicated drinking water; no protector [2, 23]: 9.97 µg/mL
Fluralaner content in medicated drinking water; alpha-tocopherol as protector [2, 24]: 10.05 µg/mL
Fluralaner content in medicated drinking water; no protector [2, 24]: 5.05 µg/mL
Fluralaner conc. after incubation in 5 ppm ClO- at 40° C./75% RH, for t = 0 d [3, 25]: 0.80 µg/mL
Fluralaner conc. after incubation in 5 ppm ClO- at 40° C./75% RH, for t = 7 d [3, 25]: 0.15 µg/mL
Reduction t = 0 to t = 7 in % [3, 25]: 81%
Fluralaner conc. after incubation in 5 ppm ClO- at 40° C./75% RH, for t = 0 d [3, 26]: 0.91 µg/mL
Fluralaner conc. after incubation in 5 ppm ClO- at 40° C./75% RH, for t = 7 d [3, 26]: 0.49 µg/mL
Reduction t = 0 to t = 7 in % [3, 26]: 46%
Fluralaner conc. after incubation in 5 ppm ClO- at 40° C./75% RH, for t = 0 d [3, 27]: 0.90 µg/mL
Fluralaner conc. after incubation in 5 ppm ClO- at 40° C./75% RH, for t = 7 d [3, 27]: 0.49 µg/mL
Reduction t = 0 to t = 7 in % [3, 27]: 46%
